Results: ChEMBL document CHEMBL3112546, “Synthetic α-(aminomethyl)-γ-butyrolactones and their anti-pancreatic cancer activities” (2013)
Counter-ions that a name gives are not always drawn. Calls of active or inactive are those of the source. No cut-off for these calls is given here.

Tests used:
[1] = Antiproliferative activity against human BxPC3 cells assessed as cell growth at 10 uM after 72 hrs by CellTitre assay relative to control; assay type: functional; details: BXPC-3, 72 h, read-out: Activity
[2] = Antiproliferative activity against human MIAPaCa2 cells assessed as cell growth at 10 uM after 72 hrs by CellTitre assay relative to control; assay type: functional; details: MIA PaCa-2, 72 h, read-out: Activity
[3] = Antiproliferative activity against human PANC1 cells assessed as cell growth at 10 uM after 72 hrs by CellTitre assay relative to control; assay type: functional; details: PANC-1, 72 h, read-out: Activity
PANC-1 = assay: Antiproliferative activity against human PANC1 cells assessed as cell growth at >100 uM after 72 hrs by CellTitre assay relative to control; assay type: functional, cell-based

Structure (SMILES) | growth at 10 µM [1] | growth at 10 µM [2] | growth at 10 µM [3] | Activity (PANC-1)
C=C1C(=O)O[C@@H]2[C@H]3O[C@]3(C)CC/C=C(\C)CC[C@@H]12 | 6% | 3% | 12% | 
C=C1C(=O)O[C@@H](c2ccccc2)[C@@H]1c1ccccc1 (racemic) | 1% | 1% | 1% | 
C=C1C(=O)O[C@H](c2ccccc2)[C@@H]1c1ccccc1 (racemic) | 8% | 3% | 38% | 
CN(C)C[C@H]1C(=O)O[C@@H](c2ccccc2)[C@@H]1c1ccccc1 (racemic) | 0% | 1% | 0% | 
CN(C)C[C@@H]1C(=O)O[C@H](c2ccccc2)[C@@H]1c1ccccc1 (racemic) | 1% | 9% | 30% | 
CCN(CC)C[C@H]1C(=O)O[C@@H](c2ccccc2)[C@@H]1c1ccccc1 (racemic) | 0% | 1% | 1% | 
CCN(CC)C[C@@H]1C(=O)O[C@H](c2ccccc2)[C@@H]1c1ccccc1 (racemic) | 1% | 17% | 42% | 
O=C1O[C@@H](c2ccccc2)[C@H](c2ccccc2)[C@H]1CN1CCCC1 (racemic) | 0% | 1% | 3% | 
O=C1O[C@H](c2ccccc2)[C@H](c2ccccc2)[C@@H]1CN1CCCC1 (racemic) | 0% | 17% | 11% | 
O=C1O[C@@H](c2ccccc2)[C@H](c2ccccc2)[C@H]1CN1CCCCC1 (racemic) | 1% | 1% | 1% | 
O=C1O[C@H](c2ccccc2)[C@H](c2ccccc2)[C@@H]1CN1CCCCC1 (racemic) | 3% | 11% | 8% | 
O=C1O[C@@H](c2ccccc2)[C@H](c2ccccc2)[C@H]1CN1CCOCC1 (racemic) | 9% | 10% | 16% | 
O=C1O[C@H](c2ccccc2)[C@H](c2ccccc2)[C@@H]1CN1CCOCC1 (racemic) | 6% | 13% | 19% | 
O=C1O[C@@H](c2ccccc2)[C@H](c2ccccc2)[C@H]1CN(Cc1ccccc1)Cc1ccccc1 (racemic) | 50% | 35% |  | inactive
O=C1O[C@H](c2ccccc2)[C@H](c2ccccc2)[C@@H]1CN(Cc1ccccc1)Cc1ccccc1 (racemic) | 34% | 33% | 75% | 
O=C1O[C@@H](c2ccccc2)[C@H](c2ccccc2)[C@H]1CN(Cc1ccccc1)C(=O)c1ccccc1 (racemic) | 81% | 92% |  | inactive
C/C1=C\CC[C@@]2(C)O[C@@H]2[C@H]2OC(=O)[C@@H](CN(C)C)[C@@H]2CC1 [(DIMETHYLAMINO)PARTHENOLIDE FUMARIC ACID SALT] | 7% | 2% | 17% | 
